Laboratory results reported in patent EP0377642B1, “HERBICIDES FOR WEED CONTROL IN RICE” (E.I. DU PONT DE NEMOURS AND COMPANY, priority 1987, dated 1989).

What was measured:
Type in all cases: in vivo
PS = assay: Herbicidal efficacy in relation to application timing in Indonesia (Table 5); settings: 5 WAT
Source text: (§1) Methyl 2-[[[[(4-methoxy-6-methyl-1,3,5-triazin-2-yl)amino]carbonyl]amino]sulfonyl]benzoate (Compound 1) and mixtures thereof with other compounds were applied as a spray (using a hand sprayer) to rice (either transplanted or direct seeded) in several rice growing areas in Southeast Asia and in the U.S. Tables 1-28 contain the results of these tests and clearly exemplify the utility of this invention. The details of each application are included in the appropriate table. [drawing 2]

MV = assay: as above
Source text: as §1

rice = assay: Effects on rice growth in Thailand, phytotoxicity (Table 4); settings: scale 0-10
Source text: as §1

FIMBRISTYLIS MILIACEA = assay: Herbicidal efficacy alone and with 2,4-D in Thailand (Table 3); settings: 6 weeks after application
Source text: as §1

Eclipta alba = assay: Herbicidal efficacy in United States (Table 16); settings: 57 days after application
Source text: as §1

COC(=O)c1ccccc1S(=O)(=O)NC(=O)Nc1nc(C)nc(OC)n1 [Compound 1, Methyl 2-[[[[(4-methoxy-6-methyl-1,3,5-triazin-2-yl)amino]carbonyl]amino]sulfonyl]benzoate]
1.67: PHYTOTOXICITY (rice; applied 7 DAS, 3 GAI/HA) | PHYTOTOXICITY (rice; applied 7 DAS, 6 GAI/HA)
98%: % CONTROL OR INJURY EA (Eclipta alba; 14 GAI/HA) | % CONTROL OR INJURY EA (Eclipta alba; 21 GAI/HA)
100%: % CONTROL MV (MV; 3 WAT, 2 GAI/HA, evaluation 3) | % CONTROL MV (MV; 3 WAT, 3 GAI/HA, evaluation 2) | % CONTROL MV (MV; 3 WAT, 3 GAI/HA, evaluation 3) | % CONTROL MV (MV; 3 WAT, 4 GAI/HA, evaluation 1) | % CONTROL MV (MV; 3 WAT, 4 GAI/HA, evaluation 2) | % CONTROL MV (MV; 3 WAT, 4 GAI/HA, evaluation 3) | % CONTROL MV (MV; 3 WAT, 6 GAI/HA, evaluation 2) | % CONTROL MV (MV; 3 WAT, 6 GAI/HA, evaluation 3) | % CONTROL MV (MV; 3 WAT, 8 GAI/HA, evaluation 1) | % CONTROL MV (MV; 3 WAT, 8 GAI/HA, evaluation 2) | % CONTROL MV (MV; 3 WAT, 8 GAI/HA, evaluation 3) | % CONTROL MV (MV; 4 WAT, 2 GAI/HA, evaluation 2) | % CONTROL MV (MV; 4 WAT, 2 GAI/HA, evaluation 3) | % CONTROL MV (MV; 4 WAT, 3 GAI/HA, evaluation 2) | % CONTROL MV (MV; 4 WAT, 3 GAI/HA, evaluation 3) | % CONTROL MV (MV; 4 WAT, 4 GAI/HA, evaluation 2) | % CONTROL MV (MV; 4 WAT, 4 GAI/HA, evaluation 3) | % CONTROL MV (MV; 4 WAT, 6 GAI/HA, evaluation 2) | % CONTROL MV (MV; 4 WAT, 6 GAI/HA, evaluation 3) | % CONTROL MV (MV; 4 WAT, 8 GAI/HA, evaluation 1) | % CONTROL MV (MV; 4 WAT, 8 GAI/HA, evaluation 2) | % CONTROL MV (MV; 4 WAT, 8 GAI/HA, evaluation 3) | % CONTROL MV (MV; 5 WAT, 3 GAI/HA, evaluation 2) | % CONTROL MV (MV; 5 WAT, 3 GAI/HA, evaluation 3) | % CONTROL MV (MV; 5 WAT, 4 GAI/HA, evaluation 2) | % CONTROL MV (MV; 5 WAT, 4 GAI/HA, evaluation 3) | % CONTROL MV (MV; 5 WAT, 6 GAI/HA, evaluation 2) | % CONTROL MV (MV; 5 WAT, 6 GAI/HA, evaluation 3) | % CONTROL MV (MV; 5 WAT, 8 GAI/HA, evaluation 1) | % CONTROL MV (MV; 5 WAT, 8 GAI/HA, evaluation 2) | % CONTROL MV (MV; 5 WAT, 8 GAI/HA, evaluation 3)
1.0: PHYTOTOXICITY (rice; applied 14 DAS, 3 GAI/HA) | PHYTOTOXICITY (rice; applied 14 DAS, 6 GAI/HA) | PHYTOTOXICITY (rice; applied 21 DAS, 6 GAI/HA)
0.67: PHYTOTOXICITY (rice; applied 21 DAS, 3 GAI/HA)
20%: FIMBRISTYLIS MILIACEA CONTROL (FIMBRISTYLIS MILIACEA; applied 14 DAS, 3 GAI/HA)
73%: FIMBRISTYLIS MILIACEA CONTROL (FIMBRISTYLIS MILIACEA; applied 7 DAS, 6 GAI/HA)
97%: % CONTROL OR INJURY EA (Eclipta alba; 7 GAI/HA)
40%: FIMBRISTYLIS MILIACEA CONTROL (FIMBRISTYLIS MILIACEA; applied 14 DAS, 6 GAI/HA)
80%: % CONTROL MV (MV; 3 WAT, 2 GAI/HA, evaluation 1) | % CONTROL MV (MV; 3 WAT, 2 GAI/HA, evaluation 2) | % CONTROL MV (MV; 3 WAT, 3 GAI/HA, evaluation 1) | % CONTROL MV (MV; 3 WAT, 6 GAI/HA, evaluation 1) | % CONTROL MV (MV; 4 WAT, 2 GAI/HA, evaluation 1) | % CONTROL MV (MV; 4 WAT, 3 GAI/HA, evaluation 1) | % CONTROL MV (MV; 4 WAT, 4 GAI/HA, evaluation 1) | % CONTROL MV (MV; 4 WAT, 6 GAI/HA, evaluation 1) | % CONTROL MV (MV; 5 WAT, 2 GAI/HA, evaluation 1) | % CONTROL MV (MV; 5 WAT, 2 GAI/HA, evaluation 2) | % CONTROL MV (MV; 5 WAT, 2 GAI/HA, evaluation 3) | % CONTROL MV (MV; 5 WAT, 3 GAI/HA, evaluation 1) | % CONTROL MV (MV; 5 WAT, 4 GAI/HA, evaluation 1) | % CONTROL MV (MV; 5 WAT, 6 GAI/HA, evaluation 1)
53%: FIMBRISTYLIS MILIACEA CONTROL (FIMBRISTYLIS MILIACEA; applied 7 DAS, 3 GAI/HA)
0%: % CONTROL PS (PS; 2 GAI/HA, evaluation 3) | % CONTROL PS (PS; 3 GAI/HA, evaluation 1) | % CONTROL PS (PS; 3 GAI/HA, evaluation 2) | % CONTROL PS (PS; 3 GAI/HA, evaluation 3) | % CONTROL PS (PS; 4 GAI/HA, evaluation 1) | % CONTROL PS (PS; 4 GAI/HA, evaluation 2) | % CONTROL PS (PS; 4 GAI/HA, evaluation 3) | % CONTROL PS (PS; 6 GAI/HA, evaluation 1) | % CONTROL PS (PS; 6 GAI/HA, evaluation 2) | % CONTROL PS (PS; 6 GAI/HA, evaluation 3) | % CONTROL PS (PS; 8 GAI/HA, evaluation 1) | % CONTROL PS (PS; 8 GAI/HA, evaluation 2) | % CONTROL PS (PS; 8 GAI/HA, evaluation 3) | FIMBRISTYLIS MILIACEA CONTROL (FIMBRISTYLIS MILIACEA; applied 21 DAS, 3 GAI/HA) | FIMBRISTYLIS MILIACEA CONTROL (FIMBRISTYLIS MILIACEA; applied 21 DAS, 6 GAI/HA) | FIMBRISTYLIS MILIACEA CONTROL (FIMBRISTYLIS MILIACEA; applied 28 DAS, 3 GAI/HA) | FIMBRISTYLIS MILIACEA CONTROL (FIMBRISTYLIS MILIACEA; applied 28 DAS, 6 GAI/HA)
0: PHYTOTOXICITY (rice; applied 28 DAS, 3 GAI/HA) | PHYTOTOXICITY (rice; applied 28 DAS, 6 GAI/HA)
